A short description of the data set: Solubility of dichroic dye compound in cyclopentanone (absorbance method). The data set is classed as physicochemical. The note with it: for Solubility (evaluation grade) / Solubility (wt %): in cyclopentanone; for solubility (in words): solubility to solvent, comparison between examples. How it is done: The solubilities of the dichroic dye compounds D1 and D4 to D24 used in the examples and the comparative examples were measured as follows.
0.1 g of each dichroic dye compound was added to 2 g of cyclopentanone, and dissolved with ultrasonic waves. Then, 0.2 g of the solution portion was weighed and diluted with 45 g of cyclopentanone. The absorption spectrum of the cyclopentanone solution was measured to obtain an absorbance A (for solubility measurement).
Separately, 0.1 mg of each dichroic dye compound was completely dissolved in 100 g of cyclopentanone, and the absorption spectrum was measured to obtain an absorbance B (having a known concentration).
From data of the obtained two absorbances, the solubility was calculated by the following formula.
The evaluation standards are as follows.
A: The solubility is 2.5 mass % or greater.
B: The solubility is 1.0 mass % or greater and ess than 2.5 mass %.
C: The solubility is less than 1.0 mass %.

Regarding `C=CC(=O)OCCCCOc1ccc(/N=N/c2ccc(/N=N/c3ccc(/N=N/c4ccc(OCCCCOC(=O)C=C)cc4)cc3C)cc2)cc1` [D1], the “Solubility (evaluation grade)” value is given as “A (The solubility is 2.5 mass % or greater.)”, the “Solubility (wt %)” value is 4.5 wt % and the “solubility (in words)” value was “more excellent solubility”.
Take `C=CC(=O)OCCCCOc1ccc(/N=N/c2ccc(/N=N/c3ccc(OCCCCOC(=O)C=C)cc3)cc2)cc1` [D4]: the “Solubility (evaluation grade)” value is on record as “A (The solubility is 2.5 mass % or greater.)” and the “Solubility (wt %)” value came out at 5.7 wt %.
The like results for `C=CC(=O)OCCCCOc1ccc(/N=N/c2ccc(/N=N/c3ccc(OCCCCOC(=O)C=C)c(C)c3)cc2)cc1` [D5] were, in that order, “A (The solubility is 2.5 mass % or greater.)” and 6.8 wt %.
As to `C=CC(=O)OCCCCOc1ccc(/N=N/c2ccc(/N=N/c3ccc(OCCCCOC(=O)C=C)cc3C)cc2)cc1` [D6], the “Solubility (evaluation grade)” value is recorded as “A (The solubility is 2.5 mass % or greater.)”, the “Solubility (wt %)” value is reported as 18 wt % and the “solubility (in words)” value is listed as “more excellent solubility”.
The corresponding values for `C=CC(=O)OCCCCOc1ccc(/N=N/c2ccc(/N=N/c3ccc(OCCCCOC(=O)C=C)c(C(F)(F)F)c3)cc2)cc1` [D7] are “A (The solubility is 2.5 mass % or greater.)”, 42 wt % and “more excellent solubility”.
The like results for `C=CC(=O)OCCCCOc1ccc(/N=N/c2ccc(/N=N/c3ccc(/N=N/c4ccc(OCCCCOC(=O)C=C)cc4)cc3OCCOCCOCCOC)cc2)cc1` [D8] were, in that order, “A (The solubility is 2.5 mass % or greater.)”, 4.8 wt % and “more excellent solubility”.
With `C=CC(=O)OCCOc1ccc(/N=N/c2ccc(/N=N/c3ccc(/N=N/c4ccc(OCCOC(=O)C=C)cc4)cc3C)cc2)cc1` [D9], the “Solubility (evaluation grade)” value was “A (The solubility is 2.5 mass % or greater.)” and the “Solubility (wt %)” value worked out at 4.3 wt %.
The corresponding values for `C=CC(=O)OCCCCOc1ccc(/N=N/c2ccc(/N=N/c3ccc(/N=N/c4ccc(OCCCCCCC)cc4)cc3)c(C)c2)cc1` [D10] are “A (The solubility is 2.5 mass % or greater.)” and 2.8 wt %.
The like results for `Cc1cc(/N=N/c2ccc(OCCCCOCC3(C)COC3)cc2)ccc1/N=N/c1ccc(/N=N/c2ccc(OCCCCOCC3(C)COC3)cc2)cc1` [D11] were, in that order, “A (The solubility is 2.5 mass % or greater.)” and 3.3 wt %.
On to `C=CC(=O)OCCCCOc1ccc(/N=N/c2ccc(/N=N/c3ccc(/N=N/c4ccc(OCCCCOC(=O)C=C)cc4)cc3)cc2)cc1` [D12, reference compound], for which the “Solubility (evaluation grade)” value is reported as “C (The solubility is less than 1.0 mass %.)”, the “Solubility (wt %)” value was 0.8 wt % and the “solubility (in words)” value is “the solubility to a solvent deteriorates”.
As for `C=CC(=O)OCCCCOc1ccc(/N=N/c2ccc(/N=N/c3ccc(/N=N/c4ccc(OCCCCOC(=O)C=C)cc4)c4ccccc34)cc2)cc1` [D13, reference compound], the “Solubility (evaluation grade)” value was “B (The solubility is 1.0 mass % or greater and ess than 2.5 mass %.)”; the “Solubility (wt %)” value is reported as 1.5 wt %.
`C=CC(=O)OCCCCOc1ccc(N=Nc2ccc(N=Nc3ccc(N=Nc4ccc(OCCCCOC(=O)C=C)cc4)c(OC)c3)c(OC)c2)cc1` [D14]: the “Solubility (evaluation grade)” value was “A (The solubility is 2.5 mass % or greater.)” and the “Solubility (wt %)” value is recorded as 3.1 wt %.
The corresponding values for `C=CC(=O)OCCCCOc1ccc(N=Nc2ccc(N=Nc3ccc(N=Nc4ccc(OCCCCOC(=O)C=C)c(OC)c4)cc3C)cc2)cc1OC` [D15] are “A (The solubility is 2.5 mass % or greater.)” and 4.3 wt %.
Turning to `C=CC(=O)OCCCCOc1ccc(N=Nc2ccc(N=Nc3ccc(N=Nc4ccc(OCCCCOC(=O)C=C)cc4OC)cc3C)cc2)c(OC)c1` [D16], the “Solubility (evaluation grade)” value is reported as “A (The solubility is 2.5 mass % or greater.)”, the “Solubility (wt %)” value is recorded as 5.0 wt % and the “solubility (in words)” value is “more excellent solubility”.
In the case of `C=CC(=O)OCCCCOc1ccc(N=Nc2ccc(N=Nc3ccc(N=Nc4ccc(OCCCCOC(=O)C=C)cc4)c(C)c3)c(OC)c2)cc1` [D17], the “Solubility (evaluation grade)” value is on record as “A (The solubility is 2.5 mass % or greater.)” and the “Solubility (wt %)” value worked out at 3.2 wt %.
Consider `C=CC(=O)OCCCCOc1ccc(N=Nc2ccc(N=Nc3ccc(N=Nc4ccc(N=Nc5ccc(OCCCCOC(=O)C=C)cc5)c(OC)c4)c(OC)c3)cc2)cc1` [D18], for which the “Solubility (evaluation grade)” value was “B (The solubility is 1.0 mass % or greater and ess than 2.5 mass %.)”; the “Solubility (wt %)” value came out at 2.1 wt %.
Turning to `C=CC(=O)OCCCCOc1ccc(N=Nc2ccc(N=Nc3ccc(N=Nc4ccc(OCCCCOC(=O)C=C)c(C(F)(F)F)c4)cc3)cc2)cc1` [D19], the “Solubility (evaluation grade)” value was “A (The solubility is 2.5 mass % or greater.)” and the “Solubility (wt %)” value was above 5 wt %.
The corresponding values for `C=CC(=O)OCCCCOc1ccc(N=Nc2ccc(N=Nc3ccc(N=Nc4ccc(OCCCCOC(=O)C=C)cc4OCCOC)cc3C)cc2)c(OCCOC)c1` [D20] are “A (The solubility is 2.5 mass % or greater.)” and above 5 wt %.
Turning to `C=CC(=O)OCCCCOc1ccc(N=Nc2ccc(N=Nc3ccc(N=Nc4ccc(OCCCCOC(=O)C=C)cc4O)cc3)c(C)c2)cc1` [D21], the “Solubility (evaluation grade)” value is “B (The solubility is 1.0 mass % or greater and ess than 2.5 mass %.)”; the “Solubility (wt %)” value is recorded as 1.5 wt %.
As for `C=CC(=O)OCCCCOc1ccc(N=Nc2ccc(N=Nc3ccc(N=Nc4ccc(N=Nc5ccc(OCCCCOC(=O)C=C)cc5)cc4)cc3)cc2)cc1` [D22, reference compound], the “Solubility (evaluation grade)” value is reported as “C (The solubility is less than 1.0 mass %.)” and the “Solubility (wt %)” value amounted to 0.3 wt %.
Turning to `C=CC(=O)OCCCCOc1ccc(N=Nc2ccc(N=Nc3ccc(N=Nc4ccc(N=Nc5ccc(N=Nc6ccc(OCCCCOC(=O)C=C)c(C(F)(F)F)c6)c(C)c5)cc4)c(C)c3)cc2)cc1C(F)(F)F` [D23], the “Solubility (evaluation grade)” value is “B (The solubility is 1.0 mass % or greater and ess than 2.5 mass %.)”; the “Solubility (wt %)” value is listed as 1.2 wt %.
In the case of `CCCCc1ccc(N=Nc2ccc(N=Nc3c(C)cc(N=Nc4cc(C)c(N=Nc5ccc(N=Nc6ccc(CCCC)cc6)cc5)c(C)c4)cc3C)cc2)cc1` [D24, reference compound], the “Solubility (evaluation grade)” value was “C (The solubility is less than 1.0 mass %.)” and the “Solubility (wt %)” value is recorded as below 0.1 wt %.

The values are drawn from US20190071571A1, “COLORING COMPOSITION, DICHROIC DYE COMPOUND, LIGHT ABSORPTION ANISOTROPIC FILM, LAMINATE, AND IMAGE DISPLAY DEVICE” (FUJIFILM Corporation, priority 2016, published 2019).
